Experimental data taken from patent US9061984B2 (University of Louisville Research Foundation, Inc., priority 2008, dated 2015).
Where two headings read alike, the source gives them in different places.

Tested on: several cell lines (Panel/Cell Line)
Test: GI50, TGI and LC50 of compound II-21 for several cell lines (Table 12)

C(=N/Nc1ncnc2sc3c(c12)CCCC3)/c1ccccn1 [II-21]
GI50 (48 h, Leukemia, SR, 48-h exposure): 0.368 µM | GI50 (48 h, Melanoma, M14, 48-h exposure): 0.246 µM | GI50 (48 h, Prostate Cancer, PC-3, 48-h exposure): 0.431 µM | CC50 (48 h, read-out: LC50 (M), Leukemia, SR, 48-h exposure): > 0.0001 M | CC50 (48 h, read-out: LC50 (M), Melanoma, M14, 48-h exposure): 3.34e-05 M | CC50 (48 h, read-out: LC50 (M), Prostate Cancer, PC-3, 48-h exposure): > 0.0001 M | TGI (Breast Cancer, BT-549, 48-h exposure): 28.7 µM | TGI (Breast Cancer, HS 578T, 48-h exposure): 23.9 µM | TGI (Breast Cancer, MCF7, 48-h exposure): 15.3 µM | TGI (Breast Cancer, MDA-MB-231/ATCC, 48-h exposure): 29.7 µM | TGI (Breast Cancer, MDA-MB-468, 48-h exposure): 0.505 µM | TGI (Breast Cancer, T-47D, 48-h exposure): 28 µM | TGI (CNS Cancer, SF-268, 48-h exposure): 15.1 µM | TGI (CNS Cancer, SF-295, 48-h exposure): 12.1 µM | TGI (CNS Cancer, SF-539, 48-h exposure): 3.84 µM | TGI (CNS Cancer, SNB-19, 48-h exposure): 34.1 µM | TGI (CNS Cancer, SNB-75, 48-h exposure): 14.7 µM | TGI (CNS Cancer, U251, 48-h exposure): 12.1 µM | TGI (Colon Cancer, COLO 205, 48-h exposure): 14.7 µM | TGI (Colon Cancer, HCC-2998, 48-h exposure): 22.9 µM | TGI (Colon Cancer, HCT-15, 48-h exposure): 27 µM | TGI (Colon Cancer, HCT-116, 48-h exposure): 14.2 µM | TGI (Colon Cancer, HT29, 48-h exposure): 15.1 µM | TGI (Colon Cancer, KM12, 48-h exposure): 12.7 µM | TGI (Colon Cancer, SW-620, 48-h exposure): 17.9 µM | GI50 (Homo sapiens, 786-0, 48 h, Renal Cancer, 786-0, 48-h exposure): 0.333 µM | CC50 (Homo sapiens, 786-0, 48 h, read-out: LC50 (M), Renal Cancer, 786-0, 48-h exposure): 4.44e-05 M | GI50 (Homo sapiens, A498, 48 h, Renal Cancer, A498, 48-h exposure): 0.428 µM | CC50 (Homo sapiens, A498, 48 h, read-out: LC50 (M), Renal Cancer, A498, 48-h exposure): 3.72e-05 M | GI50 (Homo sapiens, A549, 48 h, Non-Small Cell Lung Cancer, A549/ATCC, 48-h exposure): 0.389 µM | CC50 (Homo sapiens, A549, 48 h, read-out: LC50 (M), Non-Small Cell Lung Cancer, A549/ATCC, 48-h exposure): 7.13e-05 M | GI50 (Homo sapiens, ACHN, 48 h, Renal Cancer, 48-h exposure): 0.313 µM | CC50 (Homo sapiens, ACHN, 48 h, read-out: LC50 (M), Renal Cancer, ACHN, 48-h exposure): > 0.0001 M | GI50 (Homo sapiens, BT-549, 48 h, Breast Cancer, BT-549, 48-h exposure): 0.394 µM | CC50 (Homo sapiens, BT-549, 48 h, read-out: LC50 (M), Breast Cancer, BT-549, 48-h exposure): > 0.0001 M | GI50 (Homo sapiens, CAKI-1, 48 h, Renal Cancer, CAKI-1, 48-h exposure): 0.313 µM | CC50 (Homo sapiens, CAKI-1, 48 h, read-out: LC50 (M), Renal Cancer, CAKI-1, 48-h exposure): > 0.0001 M | GI50 (Homo sapiens, CCRF-CEM, 48 h, Leukemia, 48-h exposure): 0.242 µM | CC50 (Homo sapiens, CCRF-CEM, 48 h, read-out: LC50 (M), Leukemia, CCRF-CEM, 48-h exposure): > 0.0001 M | GI50 (Homo sapiens, COLO 205, 48 h, Colon Cancer, COLO 205, 48-h exposure): 0.315 µM | CC50 (Homo sapiens, COLO 205, 48 h, read-out: LC50 (M), Colon Cancer, COLO 205, 48-h exposure): 5.45e-05 M | GI50 (Homo sapiens, DU-145, 48 h, Prostate Cancer, DU-145, 48-h exposure): 0.41 µM | CC50 (Homo sapiens, DU-145, 48 h, read-out: LC50 (M), Prostate Cancer, DU-145, 48-h exposure): 5.16e-05 M | GI50 (Homo sapiens, EKVX, 48 h, Non-Small Cell Lung Cancer, 48-h exposure): 0.317 µM | CC50 (Homo sapiens, EKVX, 48 h, read-out: LC50 (M), Non-Small Cell Lung Cancer, EKVX, 48-h exposure): > 0.0001 M | GI50 (Homo sapiens, HCC 2998, 48 h, Colon Cancer, HCC-2998, 48-h exposure): 10 µM | CC50 (Homo sapiens, HCC 2998, 48 h, read-out: LC50 (M), Colon Cancer, HCC-2998, 48-h exposure): 5.26e-05 M | GI50 (Homo sapiens, HCT-15, 48 h, Colon Cancer, HCT-15, 48-h exposure): 0.45 µM | CC50 (Homo sapiens, HCT-15, 48 h, read-out: LC50 (M), Colon Cancer, HCT-15, 48-h exposure): > 0.0001 M | GI50 (Homo sapiens, HCT-116, 48 h, Colon Cancer, HCT-116, 48-h exposure): 0.166 µM | CC50 (Homo sapiens, HCT-116, 48 h, read-out: LC50 (M), Colon Cancer, HCT-116, 48-h exposure): 6.74e-05 M | GI50 (Homo sapiens, HL-60, 48 h, Leukemia, HL-60(TB), 48-h exposure): 0.12 µM | CC50 (Homo sapiens, HL-60, 48 h, read-out: LC50 (M), Leukemia, HL-60(TB), 48-h exposure): > 0.0001 M | GI50 (Homo sapiens, HOP-62, 48 h, Non-Small Cell Lung Cancer, HOP-62, 48-h exposure): 0.395 µM | CC50 (Homo sapiens, HOP-62, 48 h, read-out: LC50 (M), Non-Small Cell Lung Cancer, HOP-62, 48-h exposure): > 0.0001 M | GI50 (Homo sapiens, HOP-92, 48 h, Non-Small Cell Lung Cancer, HOP-92, 48-h exposure): 0.417 µM | CC50 (Homo sapiens, HOP-92, 48 h, read-out: LC50 (M), Non-Small Cell Lung Cancer, HOP-92, 48-h exposure): > 0.0001 M | GI50 (Homo sapiens, HT-29, 48 h, Colon Cancer, HT29, 48-h exposure): 0.18 µM | CC50 (Homo sapiens, HT-29, 48 h, read-out: LC50 (M), Colon Cancer, HT29, 48-h exposure): 4.49e-05 M | GI50 (Homo sapiens, Hs-578T, 48 h, Breast Cancer, HS 578T, 48-h exposure): 0.748 µM | CC50 (Homo sapiens, Hs-578T, 48 h, read-out: LC50 (M), Breast Cancer, HS 578T, 48-h exposure): > 0.0001 M | GI50 (Homo sapiens, IGROV-1, 48 h, Ovarian Cancer, IGROV1, 48-h exposure): 0.45 µM | CC50 (Homo sapiens, IGROV-1, 48 h, read-out: LC50 (M), Ovarian Cancer, IGROV1, 48-h exposure): > 0.0001 M | GI50 (Homo sapiens, K562, 48 h, Leukemia, K-562, 48-h exposure): 0.284 µM | CC50 (Homo sapiens, K562, 48 h, read-out: LC50 (M), Leukemia, K-562, 48-h exposure): > 0.0001 M | GI50 (Homo sapiens, KM12, 48 h, Colon Cancer, KM12, 48-h exposure): 0.515 µM | CC50 (Homo sapiens, KM12, 48 h, read-out: LC50 (M), Colon Cancer, KM12, 48-h exposure): 3.81e-05 M | GI50 (Homo sapiens, LOX IMVI, 48 h, Melanoma, 48-h exposure): 0.256 µM | CC50 (Homo sapiens, LOX IMVI, 48 h, read-out: LC50 (M), Melanoma, LOX IMVI, 48-h exposure): 3.48e-05 M | GI50 (Homo sapiens, MCF7, 48 h, Breast Cancer, MCF7, 48-h exposure): 0.336 µM | CC50 (Homo sapiens, MCF7, 48 h, read-out: LC50 (M), Breast Cancer, MCF7, 48-h exposure): 8e-05 M | GI50 (Homo sapiens, MDA-MB-231, 48 h, Breast Cancer, MDA-MB-231/ATCC, 48-h exposure): 0.603 µM | CC50 (Homo sapiens, MDA-MB-231, 48 h, read-out: LC50 (M), Breast Cancer, MDA-MB-231/ATCC, 48-h exposure): > 0.0001 M | GI50 (Homo sapiens, MDA-MB-435, 48 h, Melanoma, MDA-MB-435, 48-h exposure): 0.477 µM | CC50 (Homo sapiens, MDA-MB-435, 48 h, read-out: LC50 (M), Melanoma, MDA-MB-435, 48-h exposure): > 0.0001 M | GI50 (Homo sapiens, MDA-MB-468, 48 h, Breast Cancer, MDA-MB-468, 48-h exposure): 0.2 µM | CC50 (Homo sapiens, MDA-MB-468, 48 h, read-out: LC50 (M), Breast Cancer, MDA-MB-468, 48-h exposure): 4.1e-05 M | GI50 (Homo sapiens, MOLT-4, 48 h, Leukemia, MOLT-4, 48-h exposure): 0.261 µM | CC50 (Homo sapiens, MOLT-4, 48 h, read-out: LC50 (M), Leukemia, MOLT-4, 48-h exposure): > 0.0001 M | GI50 (Homo sapiens, Malme-3M, 48 h, Melanoma, 48-h exposure): 0.275 µM | CC50 (Homo sapiens, Malme-3M, 48 h, read-out: LC50 (M), Melanoma, MALME-3M, 48-h exposure): 5.14e-05 M | GI50 (Homo sapiens, NCI-H23, 48 h, Non-Small Cell Lung Cancer, NCI-H23, 48-h exposure): 0.705 µM | CC50 (Homo sapiens, NCI-H23, 48 h, read-out: LC50 (M), Non-Small Cell Lung Cancer, NCI-H23, 48-h exposure): > 0.0001 M | GI50 (Homo sapiens, NCI-H226, 48 h, Non-Small Cell Lung Cancer, NCI-H226, 48-h exposure): 0.385 µM | CC50 (Homo sapiens, NCI-H226, 48 h, read-out: LC50 (M), Non-Small Cell Lung Cancer, NCI-H226, 48-h exposure): > 0.0001 M | GI50 (Homo sapiens, NCI-H322M, 48 h): 0.216 µM | CC50 (Homo sapiens, NCI-H322M, 48 h, read-out: LC50 (M)): > 0.0001 M | GI50 (Homo sapiens, NCI-H460, 48 h, Non-Small Cell Lung Cancer, NCI-H460, 48-h exposure): 0.304 µM | CC50 (Homo sapiens, NCI-H460, 48 h, read-out: LC50 (M), Non-Small Cell Lung Cancer, NCI-H460, 48-h exposure): 3.11e-05 M
